Assay results as given in PubChem BioAssay (NCI).
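Compound exposure: 48 hours, 5 concentrations, 96-well plates. TGI is the concentration that stops growth completely.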

Legend:
Assay in all cases: NCI-60 cell line screen, 48 h
[1] = tested on: SF-268 CNS
[2] = tested on: RPMI-8226 leukemia
[3] = tested on: SK-MEL-28 melanoma
[4] = tested on: SNB-19 CNS
[5] = tested on: CAKI-1 renal
[6] = tested on: DU-145 prostate
[7] = tested on: T-47D breast
[8] = tested on: UO-31 renal
[9] = tested on: HOP-92 NSCLC
[10] = tested on: OVCAR-3 ovarian
[11] = tested on: SF-295 CNS

SMILES | TGI [1] [µM] | TGI [2] [µM] | TGI [3] [µM] | TGI [4] [µM] | TGI [5] [µM] | TGI [6] [µM] | TGI [7] [µM] | TGI [8] [µM] | TGI [9] [µM] | TGI [10] [µM] | TGI [11] [µM]
COc1ccc2c(c1)-c1nc(=O)n(CCCN(C)C)c3ccc([N+](=O)[O-])c(c13)N2 | 17.8 | 0.694 | 4.3 | 8.58 | 5.26 | 17.1 | 32.2 | 4.73 | 8.53 | 19.4 | 20.8
O=C(O)c1cccc(OCCOc2cccc(C(=O)O)c2[N+](=O)[O-])c1[N+](=O)[O-] | > 100 | > 100 | > 100 | > 100 | > 100 | > 100 | > 100 | > 100 | > 100 | > 100 | > 100
COc1ccc(-n2c(Cn3nnc(-c4cccnc4)n3)nn(C3OC(COC(=O)c4ccccc4)C(OC(=O)c4ccccc4)C3OC(=O)c3ccccc3)c2=S)cc1 (stereo unspecified) | > 100 | > 100 | > 100 | > 100 | > 100 | > 100 | > 100 | > 100 | > 100 | > 100 | > 100
Cc1cc(C)c(S(=O)(=O)N(CCCN)OCCON(CCCN)S(=O)(=O)c2c(C)cc(C)cc2C)c(C)c1 | 5.37 | 6.33 | 31 | 4.37 | > 71.4 | > 100 | > 45.1 | 58.7 | > 21.6 | 3.93 | 67
CO[C@H]1O[C@@H]2OC3(C)CCC4[C@H](C)CCC([C@H]1C)[C@]42OO3 (stereo partly specified) | > 100 | > 100 | > 100 | > 100 | > 100 | > 100 | > 100 | > 100 | > 100 | > 100 | > 100
Cc1[nH]c2nc3c(ncn3COCCO)c(=O)n2c1C(c1ccccc1)(c1ccccc1)c1ccccc1 | 33.1 | 45.5 | 43.5 | 28.6 | > 100 | 26.2 | 29.7 | > 76.1 | 31.8 | 15.4 | 34.2
